{"source": "paper PMC8534003", "about": "“The Chemokine-Based Peptide, CXCL9(74-103), Inhibits Angiogenesis by Blocking Heparan Sulfate Proteoglycan-Mediated Signaling of Multiple Endothelial Growth Factors” (Cancers, 2021)", "key": {"[1]": {"conditions": "reference not given at the value; read-out: KD, heparin binding; cited from earlier work", "from_the_text": "In our present study, we wanted to explore the potential of CXCL9(74-103), a high affinity GAG-binding peptide, to interfere with angiogenesis by targeting growth factor-induced signaling cascades and associated processes. […] The obtained KD value lies within the range of the concentrations that were applied in the different in vivo and in vitro assays reported here. FGF-2-mediated proliferation, chemotaxis and sprouting in vitro was diminished by CXCL9(74-103). Also in vivo, CXCL9(74-103) treatment attenuated FGF-2-mediated neovascularization in the Matrigel plug assay. The inhibitory mechanism responsible for countering FGF-2 could be that (1) by direct interaction with FGF-2, CXCL9(74-103) can t ..."}, "[2]": {"system": "diabetes-induced vascular permeability, Sprague-Dawley rats", "assay": "Retinal vascular permeability in streptozotocin-induced diabetic rats", "format": "in vivo, rat", "conditions": "intravitreal, equimolar CXCL9(74-103) 30 µg or CXCL9(86-103) 18 µg, two weeks, n = 12–15", "experimental": "Male Sprague-Dawley rats (210–240 g) were fasted overnight and injected intraperitoneally (i.p.) with streptozotocin (55 mg/kg body weight, dissolved in citrate buffer, pH 4.5) to induce diabetes. After 3 days, the animals were anesthetized, diabetes was confirmed and the vitreous of the right eye was injected with equimolar amounts of CXCL9(74-103) (30 µg), CXCL9(86-103) (18 µg) or PBS (5 µL/injection). Diabetes-induced breakdown of the blood-retinal barrier as a consequence of increased vascular permeability was evaluated in retinas two weeks after streptozotocin injection, as previously described. Briefly, 30 min prior to sacrifice, fluorescein isothiocyanate (FITC)-conjugated dextran of 3-5 kDa (Sigma-Aldrich) was intravenously (i.v.) injected. After collection of a blood sample, rats were perfused with PBS. The retinas were excised, weighed and homogenized. The fluorescence in the retina lysates was measured using a SpectraMax® Gemini™ XPS system. For normalization of the data, the following equation was used to express the obtained results: Retinal FITC-dextran (µg)/retinal weight (g) Plasma FITC-dextran concentration (µg/µL) × circulation time (h)"}, "[3]": {"system": "human microvascular endothelial cells (HMVECs)", "assay": "Endothelial cell proliferation assay (MTT or ATP lite)", "format": "cell-based", "conditions": "peptide 3 µM, 3 to 4 days, HMVECs, 1% FCS, mean ± SEM, n ≥ 4", "experimental": "The ability of the CXCL9-derived peptides to inhibit growth factor-induced proliferation of endothelial cells was assessed. HMVECs were seeded at 5 × 10^3 cells/well in EBM™-2 medium containing 1% (v/v) FCS (proliferation medium). After settling of the cells, they were stimulated with EGF, VEGF165 (both 5 ng/mL) or FGF-2 (3 ng/mL) as a single stimulus or in combination with CXCL9(86-103) or CXCL9(74-103) at 0.3 or 3 µM in proliferation medium or left untreated. HMVECs were also treated with 0.3 or 3 µM of CXCL9(74-103) or 3 µM of CXCL9(86-103) alone to assess the effect of CXCL9-derived peptide treatment on spontaneous proliferation. After 3 to 4 days, a 3-(4,5-dimethylthiazol-2-yl)-2,5-diphenyl tetrazolium bromide (MTT) or ATP lite assay was performed. The ATP lite assay was performed according to the manufacturer’s instructions (Perkin Elmer, Waltham, MA). When MTT was used as substrate, the medium was replaced with 200 µL of MTT solution (RPMI without phenol red containing 0.4 g/L MTT) and the cells were incubated at 37 °C and 5% CO2 in the dark for 4 hours. Then, the MTT solution was discarded and the formed formazan crystals were dissolved in 200 µL acidic propanol [0.04 M HCl, 0.1% (v/v) NP-40 in isopropanol] under continuous shaking in the dark for 10 min. The optical densities were measured at 570 nm and 630 nm (reference wavelength)."}, "[4]": {"system": "FGF-2-induced angiogenesis, C57BL/6 mice", "assay": "In vivo angiogenesis Matrigel plug assay", "set-up": "species or system mouse", "conditions": "data not shown", "experimental": "Six-to-eight-week-old female C57BL/6 mice were anesthetized with a mixture of 2.5 mg/mL xylazine (V.M.D, Inovet, Arendonk, Belgium) and 37.5 mg/mL ketamine (Dechra, Northwich, UK) in PBS by i.p. injection. A vertical dorsal incision was made and an ALZET osmotic pump (model 1007D, DURECT Corporation, Cupertine, CA, USA) filled with 400 µg/100 µL CXCL9(74-103) or 100 µL PBS was subcutaneously (s.c.) implanted. The incision was closed with a surgical suture. Growth factor-reduced Matrigel (Corning Matrigel Growth Factor (GFR) Basement Membrane Matrix, Phenol Red-Free, LDEV-Free; Corning Life Sciences, Amsterdam, The Netherlands) was s.c. injected in the dorsal flank forming a firm plug (600 µL/plug). The Matrigel was either injected as such (control plugs) or supplemented with 300 µg CXCL9(74-103) and/or 180 ng FGF-2. Seven days later, the mice were sacrificed. Thirty minutes before sacrifice, the mice were i.v. injected with 200 µL (25 mg/kg) FITC-labeled 2000 kDa dextran (Sigma-Aldrich) to quantify vessel formation in the Matrigel plugs. Blood was collected through cardiac puncture into heparinized tubes containing 20 µL heparin (5.000 IE/mL, Leo Pharma, Ballerup, Denmark). The blood was centrifuged at 200 g and 4 °C for 10 min, whereafter the supernatant was centrifuged at 3000 g and 4 °C for 10 min. The collected plasma was stored away from light at 4 °C until analysis. The Matrigel plugs were removed and enzymatically and mechanically digested in 1.2 mL dispase (Corning Life Sciences) using an incubation at 37 °C for 1.5 h and the gentleMACS™ Dissociator (Miltenyi Biotec, Bergisch Gladbach, Germany). The digested Matrigel plugs were filtered through a 70 µm cell strainer, washed with 1.5 mL FACS buffer [2% (v/v) FCS + 2 mM EDTA in PBS] and centrifuged at 300 g and 4 °C for 7 min. The supernatant (SN) was centrifuged again at 300 g and 4 °C for 7 min and the SN was retained away from light at 4 °C until analysis. The pellet was resuspended in 1 mL FACS buffer, the cells were counted and used for flow cytometry. The antibodies used to identify endothelial cells were anti-mouse CD45-APC (clone 30-F11, eBioscience, Thermo Fisher Scientific), anti-mouse CD146-PE (clone ME-9F1) and anti-mouse Pan-endothelial Cell Antigen-BV711 (clone MECA-32) antibodies (both BD Biosciences). Mice experiments were approved by the Ethical Committee of KU Leuven (project number P199/2018)."}}, "note": "Entries after “also recorded” stand apart in the source; their conditions may differ.", "data": [{"sequence": "KKVLKVRKSQRSRQKKTT [CXCL9(86-103)]", "values": [{"measurement": "Kd", "setting": "[1]", "value": 820, "unit": "nM"}, {"measurement": "retinal vascular permeability (FITC-dextran leakage)", "setting": "[2]", "value": "tended to decrease the vascular leakage, but this was not significant; also recorded: could not significantly improve diabetes-induced vascular leakage"}, {"measurement": "EGF-induced proliferation", "setting": "[3]; EGF 5 ng/mL", "value": "could not significantly alter"}, {"measurement": "FGF-2-induced proliferation", "setting": "[3]; FGF-2 3 ng/mL", "value": "significantly attenuated"}, {"measurement": "VEGF165-induced proliferation", "setting": "[3]; VEGF165 5 ng/mL", "value": "could not significantly alter"}, {"measurement": "FGF-2-induced angiogenesis in the Matrigel plug assay", "setting": "[4]", "value": "no anti-angiogenic activity"}]}]}
